We go through 16 molecules from patent publication US9353116B2, “Methods and compositions for kinase inhibition” (THE REGENTS OF THE UNIVERSITY OF CALIFORNIA, priority 2010, dated 2016).

Format in all cases: biochemical
The target of assay [1] is T1, WT c-Src (Gallus gallus (Chicken), UniProt P00523). Description: In vitro kinase assay, WT c-Src. How it is done: (§1) In vitro kinase assays for c-Src variants were performed in 50 mM Tris (pH 8.0), 10 mM MgCl2 and 1 mg/mL BSA. When obtaining kinetic parameters (kcat, Km) kinase and peptide substrate (IYGEFKKK) (SEQ ID NO:51) concentrations were 2 nM and 500 μM, respectively, while ATP concentrations ranged from 2000-0.655 μM. Addition of nonradioactive ATP supplemented with ^32P ATP (3,000 Ci/mmol, NEN) was used to initiate kinase reactions. Time points were selected such that product formation never exceeded 10%. Reactions were quenched by spotting 3 μL quantities onto phosphocellulose sheets (P81, Whatman). Afterwards, the sheets were washed 3×5 minutes in 0.5% phosphoric acid and dried. Radioactivity was measured by phosphorimaging and recorded on a Typhoon fluorescence imager (Molecular Dynamics). Data were plotted as rate (min^−1) versus ATP concentration and fitted to the Michaelis-Menten equation, v=[(kcat)[S]]/(Km+[S]), using Kaleidagraph software (Synergy) to extract kinetic parameters. When obtaining IC50 values for the inhibitors, 2% (v/v) DMSO was included in kinase reactions. In these cases ATP, peptide, and enzyme concentrations were 15 nM, 100 μM and 5 nM, respectively, while inhibitor concentrations ranged from 10,000-0.610 nM. In all cases, a ten-minute preincubation step between the kinase and the inhibitor preceded addition of ATP and a fifteen-minute reaction. The data was fitted to a sigmoidal dose-response curve using Prism 4.0c (GraphPad Software) to obtain IC50 values.

Assay [2] concerns the target T2, T338C c-Src (Gallus gallus (Chicken), UniProt P00523, T338C). As to the kind of experiment: In vitro kinase assay, T338C c-Src (c-Src-ES1). The settings on record: for fold drop in potency against T338C c-Src relative to compound 9: relative to isopropyl vinylsulfonamide 9; for fold increase in inhibition of T338C relative to WT c-Src: T338C vs WT c-Src. How it is done: as §1, with “In all cases, a ten-minute preincubation step between the kinase and the inhibitor preceded addition of ATP and a fifteen-minute reaction.” left out

Assay [3] deals with 307 kinases. As to the kind of experiment: Kinome-wide profiling (SelectScreen Kinase Profiling Service). The following applies: compounds at 1 μM, ATP at Km,app. As for the experimental part:
The percent inhibition results in FIG. were generated with biochemical enzymatic kinase assays using the SelectScreen® Kinase Profiling Service (Life Technologies Corporation, Madison, Wis.). Compounds were assayed at 1 μM at an ATP concentration equal to the ATP Km,app for the assay following the detailed procedures described in the SelectScreen® Customer Protocol and Assay Conditions documents located at www.invitrogen.com/kinaseprofiling.
Compounds that were profiled include, but are not limited to, 3, 4, 9, 13, and 20. […] The exocyclic amine mimics N6 of ATP and plays an important role in a hydrogen bonding interaction with the hinge region of kinases.

In assay [4] the target is c-Src-ES2 (T338C/V323A) (Gallus gallus (Chicken), UniProt P00523, T338C/V323A). As to the kind of experiment: In vitro kinase assay, c-Src-ES2. How it is done: as §1
Assay [5] addresses c-Src-ES3 (T338C/V323S) (Gallus gallus (Chicken), UniProt P00523, T338C/V323S). Description: In vitro kinase assay, c-Src-ES3. The following applies: ES3 = T338C/V323S; read-out: c-Src variant IC50 (nM) ES3. As for the experimental part:
as §1

For assay [6], the target named is T1, WT c-Src. As to the kind of experiment: Gel filtration and kinetic assay, WT c-Src. The settings on record: 23 μM inhibitor, 25 minutes, then PD10 desalting. As for the experimental part: (§2) Inhibitors (final concentration 23 μM) were incubated with c-Src variants (final concentration 11.5 μM) in kinase reaction buffer (50 mM Tris pH 8, 100 mM NaCl, 1 mM DTT, 5% glycerol, 5% DMSO) for 25 minutes at room temperature. The solutions (2.6 mL total) were then passed over PD10 desalting columns (GE Healthcare) using the kinase reaction buffer for elution. Src concentrations were calculated using the extinction coefficient for c-Src (51.140 mM^−1cm^−1) {Seeliger, 2005 #100}. Kinase assays were performed as described in the experimental section at a final enzyme concentration of 10 nM.

Assay [7] addresses T2, T338C c-Src. As to the kind of experiment: Gel filtration and kinetic assay, T338C c-Src. The settings on record: 23 μM inhibitor, 25 minutes, then PD10 desalting. How it is done:
as §2

Setting [8] is: inhibitor preincubated with Src ten minutes prior to addition of ATP, read-out: WT c-Src IC50.
The mark [9] stands for this setting: inhibitor preincubated with Src ten minutes prior to addition of ATP, read-out: T338C c-Src IC50.
Where [10] appears, read: 10 min preincubation with inhibitor prior to addition of ATP, read-out: IC50 against WT c-Src.
Where [11] appears, read: 10 min preincubation with inhibitor prior to addition of ATP, read-out: IC50 against T338C c-Src.

Like-named read-outs stand apart in the source and are kept apart here.

For the molecule `C=CS(=O)(=O)Nc1cccc(Cc2nn(C)c3ncnc(N)c23)c1` [Compound 15, N-(3-((4-amino-1-methyl-1H-pyrazolo[3,4-d]pyrimidin-3-yl)methyl)phenyl)ethenesulfonamide], the half-maximal inhibitory concentration (IC50) – broadly, the concentration at which inhibition is half-maximal – in assay [1] (setting [8]) is more than 5000 nM; in assay [2] (setting [9]) it was 3160 nM. The “fold drop in potency against T338C c-Src relative to compound 9” value in assay [2] was found to be 21 fold.

In the case of `C=CC(=O)Nc1cccc(Nc2ncnc3cc(OC)c(OC)cc23)c1` [Compound 18, N-(3-(6,7-dimethoxyquinazolin-4-ylamino)phenyl)acrylamide], the IC50 in assay [1] (setting [8]) was more than 5000 nM; in assay [2] (setting [9]), 1660 nM.

For the molecule `C=CS(=O)(=O)Nc1ccc(Cc2nn(C(C)C)c3ncnc(N)c23)cc1` [Compound 10, N-(4-((4-amino-1-isopropyl-1H-pyrazolo[3,4-d]pyrimidin-3-yl)methyl)phenyl)ethenesulfonamide], the IC50 in assay [1] (setting [8]) amounted to 3080 nM; in assay [2] (setting [9]) it was 1760 nM.

On to `C=CC(=O)Nc1cccc(Cc2nn(C(C)C)c3ncnc(N)c23)c1` [Compound 7, N-(3-((4-amino-1-isopropyl-1H-pyrazolo[3,4-d]pyrimidin-3-yl)methyl)phenyl)acrylamide], for which the half-maximal inhibitory concentration (IC50) is more than 5000 nM in assay [1] (setting [8]) and 2760 nM in assay [2] (setting [9]).

`C=CS(=O)(=O)Nc1cccc(-c2nn(C(C)C)c3ncncc23)c1` [Compound 4, N-(3-(1-isopropyl-1H-pyrazolo[3,4-d]pyrimidin-3-yl)phenyl)ethenesulfonamide]: the IC50 was not below 5000 nM in assay [1] (setting [10]), more than 5000 nM in assay [1] (setting [8]), not below 5000 nM in assay [2] (setting [11]) and more than 5000 nM in assay [2] (setting [9]). The “off-target profile in kinome-wide screen” value in assay [3] was “relatively few off-target effects”.

For `CC(C)n1nc(-c2cccc(NC(=O)CCl)c2)c2c(N)ncnc21` [Compound 6, N-(3-(4-amino-1-isopropyl-1H-pyrazolo[3,4-d]pyrimidin-3-yl)phenyl)-2-chloroacetamide], the IC50 in assay [1] (setting [8]) is more than 5000 nM; in assay [2] (setting [9]), 817 nM.

Consider `C=CS(=O)(=O)Nc1cccc(-c2nn(C(C)C)c3ncnc(N)c23)c1` [Compound 3, N-(3-(4-amino-1-isopropyl-1H-pyrazolo[3,4-d]pyrimidin-3-yl)phenyl)ethenesulfonamide], for which the IC50 came to 63 nM in assay [4] (ES2 = T338C/V323A, read-out: c-Src variant IC50 (nM) ES2); 131 nM in assay [5]; 1000 nM in assay [1] (setting [8]); 111 nM in assay [2] (ES1 = T338C, read-out: c-Src variant IC50 (nM) ES1); 111 nM in assay [2] (setting [9]). For the same molecule, in assay [4] (c-Src-ES2 and c-Src-ES3 relative to c-Src-ES1), the “change of inhibitor potency upon second-site Val323 mutations” value is on record as “not modulated appreciably”. For the same molecule, in assay [2], the “fold increase in inhibition of T338C relative to WT c-Src” value was more than 9 fold.

As for `C=CS(=O)(=O)Nc1cccc(Cc2nn(C(C)(C)C)c3ncnc(N)c23)c1` [Compound 16, N-(3-((4-amino-1-tert-butyl-1H-pyrazolo[3,4-d]pyrimidin-3-yl)methyl)phenyl)ethenesulfonamide], the results for the IC50 in assay [1] (setting [8]) and in assay [2] (setting [9]) were more than 5000 nM and 618 nM, respectively. The “fold drop in potency against T338C c-Src relative to compound 9” value in assay [2] stood at 4 fold.

Regarding `CC(C)n1nc(Cc2cccc(NC(=O)CCl)c2)c2c(N)ncnc21` [Compound 12, N-(3-((4-amino-1-isopropyl-1H-pyrazolo[3,4-d]pyrimidin-3-yl)methyl)phenyl)-2-chloroacetamide], the IC50 in assay [1] (setting [8]) and in assay [2] (setting [9]) was more than 5000 nM in each case.

For `C=CS(=O)(=O)Nc1cccc(Cc2nn(C3CCCC3)c3ncnc(N)c23)c1` [Compound 17, N-(3-((4-amino-1-cyclopentyl-1H-pyrazolo[3,4-d]pyrimidin-3-yl)methyl)phenyl)ethenesulfonamide], the IC50 is more than 5000 nM in assay [1] (setting [8]) and 196 nM in assay [2] (setting [9]).

In the case of `CCS(=O)(=O)Nc1cccc(Cc2nn(C(C)C)c3ncnc(N)c23)c1` [Compound 11, N-(3-((4-amino-1-isopropyl-1H-pyrazolo[3,4-d]pyrimidin-3-yl)methyl)phenyl)ethanesulfonamide], the IC50 is more than 5000 nM in assay [1] (setting [8]) and 3500 nM in assay [2] (setting [9]). The “fold drop in potency against T338C c-Src relative to compound 9” value in assay [2] was 23 fold.

For the molecule `C=CC(=O)Nc1cccc(-c2nn(C(C)C)c3ncnc(N)c23)c1` [Compound 1, N-(3-(4-amino-1-isopropyl-1H-pyrazolo[3,4-d]pyrimidin-3-yl)phenyl)acrylamide], the values for the IC50 in assay [1] (setting [8]) and in assay [2] (setting [9]) were 2320 nM and 419 nM, respectively.

`C=CC(=O)Nc1ccc(Cc2nn(C(C)C)c3ncnc(N)c23)cc1` [Compound 8, N-(4-((4-amino-1-isopropyl-1H-pyrazolo[3,4-d]pyrimidin-3-yl)methyl)phenyl)acrylamide]: the IC50 in assay [1] (setting [8]) and in assay [2] (setting [9]) was more than 5000 nM each time.

On to `Cc1ccc(-c2nn(C(C)(C)C)c3ncnc(N)c23)cc1` [PP1, reference compound], for which the “inhibitory activity after gel filtration, WT c-Src” value in assay [6] is “abrogated”. Besides, the “inhibitory activity after gel filtration, T338C c-Src” value in assay [7] is “abrogated”.

For `C=CC(=O)Nc1cccc(-c2nn(C(C)C)c3ncncc23)c1` [Compound 2, N-(3-(1-isopropyl-1H-pyrazolo[3,4-d]pyrimidin-3-yl)phenyl)acrylamide], the IC50 in assay [1] (setting [10]) was not below 5000 nM; in assay [1] (setting [8]), more than 5000 nM; in assay [2] (setting [11]), not below 5000 nM; in assay [2] (setting [9]) it was more than 5000 nM.

With `C=CS(=O)(=O)Nc1ccc(-c2nn(C(C)C)c3ncnc(N)c23)cc1` [Compound 5, N-(4-(4-amino-1-isopropyl-1H-pyrazolo[3,4-d]pyrimidin-3-yl)phenyl)ethenesulfonamide], the IC50 was determined as 899 nM in assay [1] (setting [8]) and 145 nM in assay [2] (setting [9]). Moreover, in assay [2], the “fold increase in inhibition of T338C relative to WT c-Src” value was approximately 6 fold.
